Assay results as given in US10443103B2, “Chemotherapy regimen selection” (Innomedicine, LLC, priority 2015, dated 2019).

System: breast cancer
Test: Observed pathologic complete response (pCR) rate after neoadjuvant chemotherapy, GEO data sets
Format: in vivo, human
Conditions: Total of 7 GEO data sets, whole study population
Method: Herein, data was reanalyzed from several previous studies in which breast cancer patients were treated with neoadjuvant chemotherapy. Chemotherapies can be given at different stages of breast cancer: before surgery (also called neoadjuvant chemotherapy), after surgery and after metastasis. Neoadjuvant chemotherapy is often used to shrink tumors to make them more operable. There are two main categories of cytotoxic chemotherapy drugs for breast cancer: anthracyclines and taxanes. Many different combinations of the two types of drugs have been used for treating breast cancer, despite the fact that no effective guidelines are available for the selection of a specific regimen for a patient (Dotan, et al., 2010). Herein, data was collected from 1111 breast cancer patients from GEO database (Gene Expression Omnibus (Edgar, et al., 2002, Barrett, et al., 2013)), where clinical information including responses to chemotherapy and gene expression data are available. […] Among the 1111 patients, 21.2% of them have pCR and the rest have RD as their responses. […]
1111 breast cancer tumor samples were collected from 7 data series in GEO database (Gene Expression Omnibus (Takada, et al., 2012, Albain, et al., 2010)) (Table 2). […] R (Liu, et al., 2012) package Affyio (Edgar, et al., 2002) was used to read and normalize the Affymetrix® data. […]

SMILES	percentage of patients who have pCR
CC(=O)O[C@@]12CO[C@@H]1C[C@H](O)[C@@]1(C)C(=O)[C@H](O)C3=C(C)[C@@H](OC(=O)[C@H](O)[C@@H](NC(=O)OC(C)(C)C)c4ccccc4)C[C@@](O)([C@@H](OC(=O)c4ccccc4)[C@H]21)C3(C)C [docetaxel]	33.1%
CC(=O)O[C@H]1C(=O)[C@@]2(C)[C@H]([C@H](OC(=O)c3ccccc3)[C@]3(O)C[C@H](OC(=O)[C@H](O)[C@@H](NC(=O)c4ccccc4)c4ccccc4)C(C)=C1C3(C)C)[C@]1(OC(C)=O)CO[C@@H]1C[C@@H]2O [paclitaxel]	19.7%
